Patent US10040781B2, “Tank-binding kinase inhibitor compounds” (Gilead Sciences, Inc., priority 2014, dated 2018)
Where two headings read alike, the source gives them in different places.

Assays:
IKKε = IKKε (Homo sapiens (Human), UniProt Q14164); assay: IKKε TR-FRET enzymatic assay; type: biochemical; settings: read-out: IKKe IC50
hJAK2 = hJAK2 (Homo sapiens (Human), UniProt O60674); assay: hJAK2 LANCE TR-FRET enzymatic assay; type: biochemical; settings: read-out: JAK2 IC50
TBK1 = TBK1 (Homo sapiens (Human), UniProt Q9UHD2); assay: TBK1 TR-FRET enzymatic assay;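 note: phosphorylation of a biotinylated Ser/Thr peptide by purified full-length recombinant TBK1, read by TR-FRET after 240 min at 25 °C, IC50 is the geometric mean of at least four runs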
[1] = TR-FRET, 2×Km ATP, geometric mean of minimum four determinations

IKKε, sequence (Q14164 whole entry): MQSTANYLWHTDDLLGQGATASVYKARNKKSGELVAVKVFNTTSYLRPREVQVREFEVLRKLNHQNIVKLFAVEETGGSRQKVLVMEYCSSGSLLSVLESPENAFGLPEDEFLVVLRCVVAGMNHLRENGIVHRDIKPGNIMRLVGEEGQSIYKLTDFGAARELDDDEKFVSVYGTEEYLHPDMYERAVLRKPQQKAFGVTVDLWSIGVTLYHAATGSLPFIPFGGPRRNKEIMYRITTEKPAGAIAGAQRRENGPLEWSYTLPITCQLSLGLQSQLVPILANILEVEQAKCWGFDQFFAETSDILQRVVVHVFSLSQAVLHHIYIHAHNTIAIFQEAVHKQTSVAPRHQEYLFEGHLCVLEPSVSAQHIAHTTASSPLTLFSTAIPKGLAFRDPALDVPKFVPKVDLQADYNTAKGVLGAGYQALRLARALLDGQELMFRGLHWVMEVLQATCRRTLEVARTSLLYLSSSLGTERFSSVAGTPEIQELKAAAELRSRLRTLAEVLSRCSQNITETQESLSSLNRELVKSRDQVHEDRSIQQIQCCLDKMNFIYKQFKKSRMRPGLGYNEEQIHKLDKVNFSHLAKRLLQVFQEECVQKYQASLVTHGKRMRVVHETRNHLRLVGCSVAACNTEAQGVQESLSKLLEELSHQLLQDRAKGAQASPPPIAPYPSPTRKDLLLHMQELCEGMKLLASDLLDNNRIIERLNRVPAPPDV
hJAK2, sequence (O60674 whole entry): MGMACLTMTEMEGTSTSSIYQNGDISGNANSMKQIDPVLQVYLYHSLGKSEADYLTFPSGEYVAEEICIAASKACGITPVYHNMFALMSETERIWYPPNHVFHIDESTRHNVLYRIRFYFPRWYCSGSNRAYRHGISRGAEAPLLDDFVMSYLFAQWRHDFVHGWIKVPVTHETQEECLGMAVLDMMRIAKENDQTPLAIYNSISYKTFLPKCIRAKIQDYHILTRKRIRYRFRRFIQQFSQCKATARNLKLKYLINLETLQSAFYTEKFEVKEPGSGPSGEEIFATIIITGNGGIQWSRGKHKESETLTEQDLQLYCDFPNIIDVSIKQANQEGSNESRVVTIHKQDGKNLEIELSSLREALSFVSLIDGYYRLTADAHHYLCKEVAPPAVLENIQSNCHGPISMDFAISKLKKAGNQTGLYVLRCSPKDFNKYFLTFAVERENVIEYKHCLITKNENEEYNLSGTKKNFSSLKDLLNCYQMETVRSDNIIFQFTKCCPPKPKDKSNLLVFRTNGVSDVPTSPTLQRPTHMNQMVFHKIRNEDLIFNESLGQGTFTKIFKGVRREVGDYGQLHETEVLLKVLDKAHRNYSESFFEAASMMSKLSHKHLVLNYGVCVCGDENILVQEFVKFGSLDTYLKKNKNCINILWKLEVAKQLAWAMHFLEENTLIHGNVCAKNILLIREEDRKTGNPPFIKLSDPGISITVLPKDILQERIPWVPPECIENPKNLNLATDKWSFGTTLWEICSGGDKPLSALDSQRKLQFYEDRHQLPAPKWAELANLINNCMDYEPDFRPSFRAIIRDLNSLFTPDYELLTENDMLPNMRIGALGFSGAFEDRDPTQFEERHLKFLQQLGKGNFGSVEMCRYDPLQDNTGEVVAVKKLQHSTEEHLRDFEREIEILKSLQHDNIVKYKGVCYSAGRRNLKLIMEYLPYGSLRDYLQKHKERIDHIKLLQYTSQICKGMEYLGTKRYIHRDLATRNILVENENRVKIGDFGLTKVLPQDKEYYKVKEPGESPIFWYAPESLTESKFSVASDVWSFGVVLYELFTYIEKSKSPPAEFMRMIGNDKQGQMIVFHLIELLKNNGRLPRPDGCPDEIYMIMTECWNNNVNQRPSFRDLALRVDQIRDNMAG
TBK1, sequence (Q9UHD2 whole entry): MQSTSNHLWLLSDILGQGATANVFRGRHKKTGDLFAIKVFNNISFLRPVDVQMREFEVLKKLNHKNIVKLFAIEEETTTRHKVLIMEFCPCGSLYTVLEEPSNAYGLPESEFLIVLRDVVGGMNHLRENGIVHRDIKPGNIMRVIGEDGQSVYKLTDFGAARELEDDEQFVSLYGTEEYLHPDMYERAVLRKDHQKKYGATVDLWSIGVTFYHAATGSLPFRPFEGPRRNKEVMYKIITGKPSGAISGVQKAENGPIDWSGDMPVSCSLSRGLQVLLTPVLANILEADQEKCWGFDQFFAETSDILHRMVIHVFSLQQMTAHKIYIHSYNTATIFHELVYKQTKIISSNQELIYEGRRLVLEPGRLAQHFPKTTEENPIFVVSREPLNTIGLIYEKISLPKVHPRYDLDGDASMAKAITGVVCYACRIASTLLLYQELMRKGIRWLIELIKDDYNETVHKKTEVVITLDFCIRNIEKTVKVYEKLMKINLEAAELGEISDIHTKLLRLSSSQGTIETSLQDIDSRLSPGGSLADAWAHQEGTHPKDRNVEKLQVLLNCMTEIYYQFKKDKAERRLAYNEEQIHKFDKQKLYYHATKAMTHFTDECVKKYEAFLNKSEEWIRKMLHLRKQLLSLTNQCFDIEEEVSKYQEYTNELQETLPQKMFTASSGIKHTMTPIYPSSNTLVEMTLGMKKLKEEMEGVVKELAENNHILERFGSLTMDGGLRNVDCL

| IC50 (IKKε) [nM] | IC50 (hJAK2) [nM] | IC50 (TBK1) [nM] | IC50 (IKKε; [1]) [nM] | SMILES |
| --- | --- | --- | --- | --- |
| – | 184 | 2 | 1 | N#Cc1cc(-c2ncnc(Nc3ccc(N4CCN(C5COC5)CC4)cc3)n2)ccc1O[C@H]1CCN(C(=O)[C@@H]2COC(=O)N2)CC1(F)F [Example 519, 2-(((S)-3,3-difluoro-1-((S)-2-oxooxazolidine-4-carbonyl)piperidin-4-yl)oxy)-5-(4-((4-(4-(oxetan-3-yl)piperazin-1-yl)phenyl)amino)-1,3,5-triazin-2-yl)benzonitrile] |
| 166 | 805 | 72 | – | CC(C)NC(=O)c1ccc(Nc2ncnc(-c3ccc(O[C@@H]4CCNC4)c(C#N)c3)n2)cc1 [Example 84, (R)-4-((4-(3-cyano-4-(pyrrolidin-3-yloxy)phenyl)-1,3,5-triazin-2-yl)amino)-N-isopropylbenzamide] |
| 397 | 333 | 233 | – | C[C@@H]1CN(c2ccc(Nc3ncnc(-c4ccc(O[C@@H]5CCN(C(=O)[C@@H](C)O)CC5(F)F)c(C#N)c4)n3)cc2)CCN1C1COC1 [Example 247, 2-(((R)-3,3-difluoro-1-((R)-2-hydroxypropanoyl)piperidin-4-yl)oxy)-5-(4-((4-((R)-3-methyl-4-(oxetan-3-yl)piperazin-1-yl)phenyl)amino)-1,3,5-triazin-2-yl)benzonitrile] |
| 7 | 408 | 4 | – | N#Cc1cc(-c2ncnc(Nc3ccc(N4CCN(C5COC5)CC4)cc3)n2)ccc1O[C@H]1CCN(C(=O)CCO)C[C@H]1F [Example 139, 2-(((3R,4S)-3-fluoro-1-(3-hydroxypropanoyl)piperidin-4-yl)oxy)-5-(4-((4-(4-(oxetan-3-yl)piperazin-1-yl)phenyl)amino)-1,3,5-triazin-2-yl)benzonitrile] |
| ≥ 1000 | ≥ 1000 | 1000 | – | COCCN1CC(COc2ccc(-c3ncnc(Nc4ccc(N5CCN(C6COC6)CC5)cc4)n3)cc2C#N)CC1=O (stereo not drawn) [Example 601, 2-((1-(2-methoxyethyl)-5-oxopyrrolidin-3-yl)methoxy)-5-(4-((4-(4-(oxetan-3-yl)piperazin-1-yl)phenyl)amino)-1,3,5-triazin-2-yl)benzonitrile] |
| – | 828 | 2 | 1 | C[C@H](O)C(=O)N1CC[C@H](Oc2ccc(-c3ncnc(Nc4ccc5c(c4)NCCO5)n3)cc2C#N)[C@H](F)C1 [Example 517, 5-(4-((3,4-dihydro-2H-benzo[b][1,4]oxazin-6-yl)amino)-1,3,5-triazin-2-yl)-2-(((3R,4S)-3-fluoro-1-((S)-2-hydroxypropanoyl)piperidin-4-yl)oxy)benzonitrile] |
| 5 | 151 | 3 | – | C[C@H]1CN(C2COC2)CCN1c1ccc(Nc2ncnc(-c3ccc(O[C@H]4CCN(C(=O)CCO)CC4(F)F)c(C#N)c3)n2)cc1 [Example 254, 2-(((S)-3,3-difluoro-1-(3-hydroxypropanoyl)piperidin-4-yl)oxy)-5-(4-((4-((S)-2-methyl-4-(oxetan-3-yl)piperazin-1-yl)phenyl)amino)-1,3,5-triazin-2-yl)benzonitrile] |
| 2 | 338 | 6 | – | CN1CCN(C(=O)c2ccc(Nc3ncnc(-c4ccc(O[C@H]5CCN(C(=O)CO)C[C@H]5F)c(C#N)c4)n3)cc2)CC1 [Example 119, 2-(((3R,4S)-3-fluoro-1-(2-hydroxyacetyl)piperidin-4-yl)oxy)-5-(4-((4-(4-methylpiperazine-1-carbonyl)phenyl)amino)-1,3,5-triazin-2-yl)benzonitrile] |
| 30 | ≥ 1000 | 8 | – | C[C@H]1CN(C(=O)CO)C[C@@H]1Oc1ccc(-c2ncnc(Nc3ccc(N4CCN(C5COC5)CC4)cc3)n2)cc1C#N [Example 192, 2-(((3R,4S)-1-(2-hydroxyacetyl)-4-methylpyrrolidin-3-yl)oxy)-5-(4-((4-(4-(oxetan-3-yl)piperazin-1-yl)phenyl)amino)-1,3,5-triazin-2-yl)benzonitrile] |
| – | 496 | 11 | 17 | C[C@H](O)C(=O)N1C[C@@H](C)[C@H](Oc2ccc(-c3ncnc(Nc4ccc(N5CCN(C6COC6)CC5)cc4)n3)cc2C#N)C(F)(F)C1 [Example 431, trans-2-((3,3-difluoro-1-((S)-2-hydroxypropanoyl)-5-methylpiperidin-4-yl)oxy)-5-(4-((4-(4-(oxetan-3-yl)piperazin-1-yl)phenyl)amino)-1,3,5-triazin-2-yl)benzonitrile] |
| 120 | 593 | 50 | – | C[C@H](O)C(=O)N1CC[C@H](Oc2ccc(-c3ncnc(Nc4ccc(N5CCN(C6COC6)CC5)cc4)n3)cc2C#N)C[C@H]1C [Example 183, 2-(((2R,4S)-1-((S)-2-hydroxypropanoyl)-2-methylpiperidin-4-yl)oxy)-5-(4-((4-(4-(oxetan-3-yl)piperazin-1-yl)phenyl)amino)-1,3,5-triazin-2-yl)benzonitrile] |
| – | ≥ 1000 | 7 | 20 | CCn1ncc(Nc2ncnc(-c3ccc(O[C@H]4CCN(C(=O)CO)C[C@H]4F)c(C#N)c3)n2)n1 [Example 503, 5-(4-((2-ethyl-2H-1,2,3-triazol-4-yl)amino)-1,3,5-triazin-2-yl)-2-(((3R,4S)-3-fluoro-1-(2-hydroxyacetyl)piperidin-4-yl)oxy)benzonitrile] |

The next lines start with the molecule.

| SMILES | IC50 (IKKε) [nM] | IC50 (hJAK2) [nM] | IC50 (TBK1) [nM] | IC50 (IKKε; [1]) [nM] |
| --- | --- | --- | --- | --- |
| N#Cc1cc(-c2ncnc(Nc3ccc(N4CCN(C5COC5)CC4)cc3)n2)ccc1O[C@H]1CCN(C(=O)c2ccncc2N)C[C@H]1F [Example 390, 2-(((3R,4S)-1-(3-aminoisonicotinoyl)-3-fluoropiperidin-4-yl)oxy)-5-(4-((4-(4-(oxetan-3-yl)piperazin-1-yl)phenyl)amino)-1,3,5-triazin-2-yl)benzonitrile] | 165 | 37 | 65 | – |
| N#Cc1cc(-c2ncnc(Nc3ccc(N4CCN(C5COC5)CC4)cc3)n2)ccc1O[C@@H]1CCN(C(=O)C2(O)CC2)C1 [Example 94, (R)-2-((1-(1-hydroxycyclopropanecarbonyl)pyrrolidin-3-yl)oxy)-5-(4-((4-(4-(oxetan-3-yl)piperazin-1-yl)phenyl)amino)-1,3,5-triazin-2-yl)benzonitrile] | 367 | > 1000 | 173 | – |
| C[C@H](O)C(=O)N1CC[C@H](Oc2ccc(-c3ncnc(Nc4ccc(C5CCOCC5)cc4)n3)cc2C#N)[C@H](F)C1 [Example 293, 2-(((3R,4S)-3-fluoro-1-((S)-2-hydroxypropanoyl)piperidin-4-yl)oxy)-5-(4-((4-(tetrahydro-2H-pyran-4-yl)phenyl)amino)-1,3,5-triazin-2-yl)benzonitrile] | 2 | ≥ 1000 | 3 | – |
| C[C@@H]1CN(c2ccc(Nc3ncnc(-c4ccc(O[C@H]5CCN(C(=O)[C@@H]6CCC(=O)N6)C[C@H]5F)c(C#N)c4)n3)cc2)CCN1C1COC1 [Example 542, 2-(((3R,4S)-3-fluoro-1-((S)-5-oxopyrrolidine-2-carbonyl)piperidin-4-yl)oxy)-5-(4-((4-((R)-3-methyl-4-(oxetan-3-yl)piperazin-1-yl)phenyl)amino)-1,3,5-triazin-2-yl)benzonitrile] | – | 363 | 6 | 4 |
| COc1cc(Nc2ncnc(-c3ccc(O[C@H]4CCN(C(=O)CCO)C[C@H]4F)c(C#N)c3)n2)ccc1N1CCN(C2COC2)CC1 [Example 562, 2-(((3R,4S)-3-fluoro-1-(3-hydroxypropanoyl)piperidin-4-yl)oxy)-5-(4-((3-methoxy-4-(4-(oxetan-3-yl)piperazin-1-yl)phenyl)amino)-1,3,5-triazin-2-yl)benzonitrile] | – | 110 | 3 | 6 |
| Cn1cc(C(=O)N2CC[C@H](Oc3ccc(-c4ncnc(Nc5ccc(N6CCN(C7COC7)CC6)cc5)n4)cc3C#N)[C@H](F)C2)nn1 [Example 147, 2-(((3R,4S)-3-fluoro-1-(1-methyl-1H-1,2,3-triazole-4-carbonyl)piperidin-4-yl)oxy)-5-(4-((4-(4-(oxetan-3-yl)piperazin-1-yl)phenyl)amino)-1,3,5-triazin-2-yl)benzonitrile] | 1 | 184 | 3 | – |
| N#Cc1cc(-c2ncnc(Nc3ccc(N4CCN(C5COC5)CC4)cc3)n2)ccc1OCC1CCNC(=O)C1 (stereo not drawn) [Example 604, 5-(4-((4-(4-(oxetan-3-yl)piperazin-1-yl)phenyl)amino)-1,3,5-triazin-2-yl)-2-((2-oxopiperidin-4-yl)methoxy)benzonitrile] | 37 | 950 | 28 | – |
| N#Cc1cc(-c2ncnc(Nc3ccc(N4CCN(C5COC5)CC4)cc3)n2)ccc1O[C@H]1CCN(C(=O)c2cccc(=O)[nH]2)C[C@H]1F [Example 413, 2-(((3R,4S)-3-fluoro-1-(6-oxo-1,6-dihydropyridine-2-carbonyl)piperidin-4-yl)oxy)-5-(4-((4-(4-(oxetan-3-yl)piperazin-1-yl)phenyl)amino)-1,3,5-triazin-2-yl)benzonitrile] | – | 109 | 3 | 2 |
| N#Cc1cc(-c2ncnc(Nc3ccc(N4CCN(C5COC5)CC4)cc3)n2)ccc1OCC1CC1 [Example 58, 2-(cyclopropylmethoxy)-5-(4-((4-(4-(oxetan-3-yl)piperazin-1-yl)phenyl)amino)-1,3,5-triazin-2-yl)benzonitrile] | 4 | 455 | 2 | – |
| COCC(O)C(=O)N1CC[C@H](Oc2ccc(-c3ncnc(Nc4ccc(N5CCN(C6COC6)CC5)cc4)n3)cc2C#N)[C@H](F)C1 (stereo partly drawn) [Example 557, 2-(((3R,4S)-3-fluoro-1-(2-hydroxy-3-methoxypropanoyl)piperidin-4-yl)oxy)-5-(4-((4-(4-(oxetan-3-yl)piperazin-1-yl)phenyl)amino)-1,3,5-triazin-2-yl)benzonitrile] | – | 917 | 6 | 4 |
